Results reported in PMC8895377, “In Vivo Targeting Replication Protein A for Cancer Therapy” (Frontiers in Oncology, 2022).
Converted amounts (≈) assume the structure as drawn. Read-outs that look alike come from different tables or passages of the source.

Legend:
60 cancer cell lines = test: Cell viability in 60 cancer cell lines (CellTiter-Glo); format: cell-based; conditions: 72 h, most values, read-out: cellular IC50
Description: In this study, 90-µl cell suspensions were seeded in 96-well plates in respective culture medium with a final cell density of 4 × 10^3 cells/well and incubated overnight. Here, 10× solution of 329 (top working concentration: 40 µM of test article in media with 3.16-fold serial dilutions to achieve 9 dose levels) was prepared, and 10 µl of drug solution or culture medium containing 0.5% DMSO (vehicle control) was added to the plate (triplicate for each drug concentration). Plates were incubated for 72 h at 37°C with 5% CO2 and then measured by CellTiter-Glo assay (Promega). Briefly, plates were equilibrated at room temperature for 30 min, and 50 µl of CellTiter-Glo reagent was added to each well. Contents were mixed for 5 min on an orbital shaker to induce cell lysis, and plates were further incubated at room temperature for 20 min to stabilize the luminescent signal. Luminescence was recorded using EnVision Multi Plate Reader. Percent cell growth was calculated relative to DMSO-treated cells (vehicle control), and the data were fit using non-linear regression analysis (GraphPad PRISM) to calculate cellular IC50.
Figure 4 Cellular activity of 329 in 60 cancer cell lines. Cell lines were treated with a 4-log range of replication protein A inhibitor (RPAi) 329 for 72 h. Cell viability was assessed using CellTiter-Glo luminescent viability assay. […]

[1] = Vehicle/excipient solubility screen; format: physicochemical
Description: With favorable potency, cellular activity, plasma stability, and a clear deficit in PK, we initiated a series of studies to assess and optimize a formulation of 329 for in vivo bioavailability. Here, 329 solubility was assessed in a series of additives, excipients, and co-solvents to identify initial favorable vehicles ( Table 2 ). […] A series of different formulations were assessed. The final formulation consisted of polysorbate 80, N-methyl-2-pyrrolidone (NMP), propylene glycol, and PEG 400 (+1.1 mol. eq. HCl added as 12 M HCl), and 329 was soluble up to 20 mg/ml, and 10-fold dilution in PBS was well dispersed with minimal precipitation.

H460 cells = test: DNA fiber analysis of replication fork dynamics; format: cell-based, human
Description: Analysis of DNA replication intermediates was performed as previously described with minor modifications ([11], [12]). H460 cells were seeded in 6-well plates at a density of 2 × 10^5 cells. […] After harvesting, the cells were resuspended in PBS at a concentration of 1,000,000 cells/ml, and 2 µl of the cell suspension was mixed with 8 µl of lysis buffer (200 mM Tris-HCl pH 7.5, 50 mM EDTA, 0.5% SDS) on a Superfrost Plus microscope slide (Fisher Scientific). After 6 min of incubation, the slides were tilted at a 45-degree angle to allow cell lysates to slowly run down the slide. After air-drying, the slides were fixed in methanol:acetic acid (3:1) and stored at 4°C. DNA fibers were denatured with 2.5N HCl for 1 h, washed with PBS, and blocked with 5% BSA in PBS-T (PBS + 0.1% Tween-20) for 1 h. […] Excess antibodies were removed by washing with PBS-T 3 times. After air-drying, the slides were mounted onto a coverslip with mounting medium. Fiber tracts were imaged with a Nikon epifluorescence microscope using a 40× oil immersion objective, and 100 fibers for each group were analyzed in ImageJ where the ratios of CldU : IdU were compared using pixel length. Data were analyzed by ANOVA with Bonferroni test for multiple comparisons.
(A) Schematic depiction of experimental design. DNA was pulse-labeled with IdU for 20 min. After IdU removal, replication forks were stalled by the addition of HU or left to replicate with vehicle treatment. HU was removed, and replication was labeled with CldU. Following CldU, cells were treated with the DDRi or vehicle. […] Data presented are combined from three individual experiments (100 fibers analyzed per experiment; 300 fibers total). Red bar indicates the median value of CldU/IdU.

H460 NSCLC cells = test: CCK-8 viability assay; format: cell-based, human; conditions: H460, 48 h, compared to 551 predecessor
Description: Cell lines were obtained from ATCC and maintained as monolayer cultures in RPMI 1640 medium (H460) or Dulbecco’s Modified Eagle's Medium (DMEM) (A549) supplemented with 10% fetal bovine serum. H460 and A549 cells were plated at 2.5 × 10^3 cells/well and A2780 and GCT27 cells plated at 5 × 10^3 cells/well in a 96-well plate and incubated for 18–24 h prior to treatments. Cells were treated with the indicated concentration of RPAi for 48 h. The vehicle (DMSO) concentration was held constant at 1%. Cell metabolism/viability was assessed by a mitochondrial metabolism assay (CCK-8) as we have described previously ([10]). The generation of the water-soluble formazan product by cellular dehydrogenases is proportional to the number of living cells. Following incubation with CCK-8 reagent, absorbance was measured at 450 nm with a BioTek Synergy H1 plate reader. Values were compared to those of vehicle-treated controls to determine percent viability, and the results represent the average and SEM of triplicate determinations.

[2] = In vivo toxicity analysis

`CCOc1ccc2cc(C3CC(c4ccc(I)cc4)=NN3C(=O)CCCC(=O)NCCCN3CCOCC3)c(Cl)nc2c1` (centres unmarked) [compound 329] showed an IC50 (60 cancer cell lines) of 5 to 10 µM, a solubility ([1]; 30% SBECD in water, aqueous with cosolvent or surfactant or cyclodextrin, read-out: Solubility) of under 1000 µg/mL and a solubility ([1]; Cremophor EL, aqueous with cosolvent or surfactant or cyclodextrin, read-out: Solubility) of under 1000 µg/mL. For the same compound, the solubility ([1]; Labrasol, aqueous with cosolvent or surfactant or cyclodextrin, read-out: Solubility) was 1100 µg/mL (≈ 1530 µM), the solubility ([1]; NMP (N-methyl-2-pyrrolidone), organic solvent or mixture, read-out: Solubility) was 70400 µg/mL (≈ 98000 µM) and the solubility ([1]; aqueous buffer, 50 mM sodium acetate pH 4, read-out: Solubility) was under 1000 µg/mL. The solubility ([1]; ethanol, organic solvent or mixture, read-out: Solubility) was under 1000 µg/mL, the solubility ([1]; oleic acid, oil or lipid, read-out: Solubility) was 2400 µg/mL (≈ 3340 µM) and the solubility ([1]; organic solvent or mixture, polysorbate 80, NMP, propylene glycol, PEG 400 (+1.1 mol. eq. HCl), read-out: solubility in final formulation) was at most 20000 µg/mL. For the same compound, the solubility ([1]; polyethylene glycol 400, organic solvent or mixture, read-out: Solubility) was 1200 µg/mL (≈ 1670 µM), the solubility ([1]; polysorbate 80, aqueous with cosolvent or surfactant or cyclodextrin, Polysorbate 8O, read-out: Solubility) was under 1000 µg/mL and the solubility ([1]; propylene glycol, organic solvent or mixture, read-out: Solubility) was 1300 µg/mL (≈ 1810 µM). The solubility ([1]; water, read-out: Solubility) was under 1000 µg/mL, the “CldU/IdU signal after HU” value (H460 cells; H460, HU 2.5 mM then 329 50 µM or VE-822 2 µM) was “significant decrease in CldU/IdU signal” and the “CldU/IdU, inhibitor alone” value (H460 cells; H460, without HU, 329 50 µM, VE-822 2 µM, 2 h) was “minimal effects”. For the same compound, the “single-agent cellular anticancer activity (CCK-8)” value (H460 NSCLC cells) was “potent single-agent activity”, the toxicity ([2]; 200 mg/kg in the new formulation) was “increased toxicity” and the kidney function ([2]; DMSO/Tween formulation, data not shown) was “no differences from vehicle controls”. For the same compound, the toxicity ([2]; dosing up to 200 mg/kg, suspension in DMSO/Tween) was “no overt toxicity” and the body weight ([2]; up to 200 mg/kg, suspension in DMSO/Tween) was “no significant loss in body weight”.
